Experimental data as given in patent publication US20230227476A1, “GALLIUM-SALOPHEN ANTIMICROBIAL COMPOUNDS AND METHODS OF USE THEREOF” (priority 2020, published 2023).
Several values for one entry are separate records, joined by “and”; a condition that tells them apart may be missing. Equal entries are not always repeated. Entries after “also recorded” stand apart in the source; their conditions may differ.

Key:
P. aeruginosa (PiuA) = settings: cited from earlier work
[1] = test system: Has signaling cascade (hasR promoter); test: hasR-lacZ β-galactosidase transcriptional reporter assay; format: cell-based, Pseudomonas aeruginosa; settings: for transcriptional activation of the hasR promoter (Has signaling): 1 μM pre-formed HasAp complex, relative to heme (holo-HasAp)
Description: Transcriptional Reporter Assay. The chromosomal fusions of the PhasR-lacZ and promoterless lacZ gene were previously constructed and used to report on transcriptional activation of the Has signaling cascade. For all β-gal assays, strains were grown overnight in 50 mL LB broth with shaking at 37° C. Cells were harvested by centrifugation and resuspended in M9 media. Strains were then inoculated at A600=0.05 in triplicate in 25 mL of M9 minimal medium and cultured for 3 h to deplete bacterial iron stores. Growth cultures were then supplemented with 1 μM of either holo-HasAp, GaPPIX-HasAp, FeSal-HasAp or GaSal-HasAp. Aliquots (1 mL) at 0 (just prior to supplementation), 2 and 5 h post supplementation were harvested and assayed for […] activity as described previously.
Testing new GaSal analogs (KD<1 μM) for inhibition of heme sensing by transcriptional reporter assays. Transcriptional reporter assays to determine inhibition of the dependent CSS cascade are performed. It was previously shown that GaSal-HasAp inhibits transcriptional activation of the has operon (FIG. 10B). Furthermore, as the deletion of hasR attenuates virulence, inhibition of the signaling pathway combined with decreased heme uptake is a viable therapeutic strategy. PAO1 hasR-lacZ cultures are grown under iron limiting conditions in defined media (M9 or SSM) pelleted and washed to remove exogenous HasAp. Cells are resuspended to a final OD600 of 0.05 and supplemented with 1.0 μM HasAp reconstituted with heme or selected GaSal derivatives. Samples are removed at various times (0.5-5 h) and assayed for β-Gal activity and corrected for differences in OD600. Competition assays are also performed in the presence of varying heme and salophen concentrations.

HasAp [2] = target: T1, HasAp (Pseudomonas aeruginosa, UniProt G3XD33); test: Binding affinity to HasAp by fluorescence quenching; settings: for Kd: read-out: KD (nM), binding affinities of ligands to HasAp, fluorescence quenching, 1 μM apo-HasAp, 20 mM sodium phosphate pH 7.4, 25° C.; for binding to HasAp weaker than heme: relative to heme
Description: Binding Affinity Determination by Fluorescence Quenching. Binding affinities were determined on an ISS K2 multifrequency fluorometer in L-format using 1 cm quartz cuvettes. To a 1 μM solution of apo-HasAp in 20 mM sodium phosphate buffer (pH 7.4, 25° C.) was titrated ligand of interest. Emission spectra were recorded (300-500 nm) following excitation at 295 nm. The decrease in maximum emission was plotted against the ligand concentration (accounting for dilution) and fit to one-site binding using GraphPad Prism 8.
Determine binding affinities (KD) by FQ. KD values of all synthesized compounds are calculated by FQ using previously described methods. Binding affinities are determined in a final volume of 200 μL in black flat-bottom 96-well plates using microplate reader. HasAp concentration is kept at 1.0 μM in Tris-HCl buffer (20 mM, pH 8.0). Inhibitors solvated in DMSO are added across a concentration range of 0.01 to 100 μM. The HasAp excitation (295 nm) emission spectrum is recorded from 300-500 nm. The KD values are calculated from plots of total binding vs. ligand concentration, where total binding corresponds to the fraction of binding sites represented by the decrease in fluorescence at the maximum emission (332 nm). All experiments are performed in triplicate.

[3] = test system: P. aeruginosa PAO1 and mutants; test: Growth curves / antibacterial activity in M9 minimal medium; format: cell-based, Pseudomonas aeruginosa; settings: M9 minimal media, 96-well plate
Description: Growth Curves. P. aeruginosa strains were grown overnight in 50 mL LB Broth with shaking at 37° C. Cells were harvested by centrifugation and resuspended in M9 minimal medium. Strains were then inoculated at A600=0.05 in 10 mL M9 minimal medium and grown for 3 h to deplete bacterial iron stores. Cultures were then plated in 96-well plates (Costar clear, flat-bottom with lid, Corning Inc) at A600≈0.05 to a final volume of 200 μL in M9 medium. Supplements (2 μL) were added as 100× stock solutions. Growth curves were recorded at 600 nm with a Biotek Synergy™ HT plate reader over 16 h of growth with shaking at 37° C. To account for background absorbance, blank wells were prepared with the same supplements but only M9 medium without culture. The blank wells were subtracted from the average of three growth wells per condition.

HasAp [4] = target: T1, HasAp; test: Circular dichroism thermal denaturation of HasAp; settings: circular dichroism at 222 nm, 10 μM HasAp
Description: Circular Dichroism. Circular dichroism experiments were performed on a Jasco J-810 spectropolarimeter using 1 mm quartz cuvettes. All samples were recorded with 10 μM HasAp in 10 mM potassium phosphate (pH 7.4) at 25° C. from 190 to 260 nm at a scan rate of 50 nm/min, with each spectrum representing 5 accumulations. Data were acquired at […] resolution and 10 nm bandwidth. The mean residue ellipticity (degrees cm^2 dmol^−1) was calculated using CDPRO software as recommended by Jasco. Thermal denaturation studies were performed over a temperature range of 20-90° C. at 222 nm. Melting temperatures were determined by fitting denaturation data to a Boltzmann-Sigmoidal distribution in GraphPad Prism 8.

HasAp [5] = test: Saturation transfer difference NMR in PAO1 ΔhasAp supernatant; format: binding, Pseudomonas aeruginosa; settings: 1H NMR, 24 hr
Description: (§1) Saturation Transfer Difference NMR. PAO1 ΔhasAp was cultured overnight from a single colony in LB Broth. The cells were harvested by centrifugation and resuspended in M9 Minimal Media. 10 mL of M9 were inoculated at A600˜0.05 and grown for 3 h. Cell-free supernatant was obtained by centrifugation and subsequent filter-sterilization by a […] syringe filter. Supernatant was then used as the solvent for subsequent STD experiments. Final sample volume contained 600 μL of supernatant with or without 10 μM HasAp (as a negative control) and 5% D2O for solvent locking.
(§2) The STD experiments were performed at 25° C. on an Agilent DD2 500 MHz spectrometer. The vendor supplied pulse sequences, dpfgse_satxfer.c was used, the on- and off-resonance fids are subtracted in-place through phase-cycling, to yield only the difference fid. Selective saturation was performed for 2.5 s and consisted of 50 ms Gaussian pulses separated by a 1-ms delay at a field strength of 50 Hz. […]
(§3) Determine the binding mode of GaSal and top derivatives by STD-, ^1H-^15N HSQC-NMR, and HDX-MS. […] Following incubation (4 h) 4,4-dimethyl-4-silapentane-1-sulfonic acid (DSS, 3 μL in D20) is added as internal standard and spectra recorded as reported. […] Combined chemical shift differences between the apo and each of the titration points are calculated using the following equation: […]

HasAp [6] = target: T1, HasAp; test: as above; format: binding; settings: GaSal 1 mM, HasAp 10 μM, PAO1 ΔhasAp supernatant
Description: as §1, §2, §3

T1 sequence (G3XD33 entry or part of it): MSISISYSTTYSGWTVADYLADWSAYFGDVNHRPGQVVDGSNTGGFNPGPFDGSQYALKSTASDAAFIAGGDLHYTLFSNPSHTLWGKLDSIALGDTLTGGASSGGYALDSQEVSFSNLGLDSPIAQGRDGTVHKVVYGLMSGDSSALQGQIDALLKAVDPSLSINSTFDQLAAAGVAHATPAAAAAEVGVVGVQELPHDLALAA

CC(C)(O/N=C(\C(=O)N[C@@H]1C(=O)N2C(C(=O)[O-])=C(C[N+]3(CCNC(=O)c4ccc(O)c(O)c4Cl)CCCC3)CS[C@H]12)c1csc(N)n1)C(=O)O [Cefiderocol]
resistance rates (P. aeruginosa (PiuA); at 10×MIC): < 7×10^−9
increase in MIC (P. aeruginosa (PiuA); mutations with a deficiency in PiuA): ~20 fold

Oc1ccccc1C=Nc1ccccc1N=Cc1ccccc1O.[Fe+3] [FeSal, FeSal Chloride]
transcriptional activation of the hasR promoter (Has signaling) [1]: inhibited the holo-HasAp activation of the cell surface signaling cascade; also recorded: inhibition of transcriptional activation relative to heme or GaPPIX; also recorded: decreased transcriptional activation relative to heme
Kd (HasAp [2]): 1100 nM and 1050 nM
binding to HasAp weaker than heme (HasAp [2]): ~3 fold

C=CC1=C(C)c2cc3[nH]c(cc4nc(cc5[nH]c(cc1n2)c(C)c5CCC(=O)O)C(CCC(=O)O)=C4C)c(C)c3C=C.[Ga+3] [GaPPIX, Gallium protoporphyrin IX]
transcriptional activation of the hasR promoter (Has signaling) [1]: no inhibition of transcriptional activation relative to heme; also recorded: increased (2 h) or similar transcriptional activation to heme
growth of P. aeruginosa PAO1 [3]: inhibits growth
Kd (HasAp [2]): 280 ± 30 nM

Oc1ccccc1C=Nc1ccccc1N=Cc1ccccc1O.[Ga+3] [GaSal, GaSalophen Nitrate]
melting temperature of HasAp (HasAp [4]): 65 °C
stability in PAO1 ΔhasAp supernatant (HasAp [5]): still intact after 24 hr
STD NMR saturation transfer from HasAp (HasAp [6]): saturation transfer among all protons of GaSal
transcriptional activation of the hasR promoter (Has signaling) [1]: inhibited the holo-HasAp activation of the cell surface signaling cascade; also recorded: inhibition of transcriptional activation relative to heme or GaPPIX; also recorded: decreased transcriptional activation relative to heme
β-galactosidase production ([1]; at 5 hours): increased β-galactosidase when compared to FeSal
Kd (HasAp [2]): 1110 ± 220 nM
binding to HasAp weaker than heme (HasAp [2]): ~3 fold

C=CC1=C(C)c2cc3[nH]c(cc4nc(cc5[nH]c(cc1n2)c(C)c5CCC(=O)O)C(CCC(=O)O)=C4C)c(C)c3C=C.[Fe+3] [Heme]
melting temperature of HasAp (HasAp [4]): > 90 °C
Kd (HasAp [2]): 350 ± 50 nM
